Experiments:
Experiment in all cases: biochemical
Settings in all cases: read-out: % inhibition mean (Z'Lyte)
[1] = biological target: ABL1 (Homo sapiens, UniProt P00519)
[2] = biological target: AURKB (Aurora B) (Homo sapiens, UniProt Q96GD4)
[3] = biological target: CDK2/cyclin A (Homo sapiens, UniProt P24941)
[4] = biological target: CDK5/p35 (Homo sapiens, UniProt Q00535)
[5] = biological target: CLK1 (Homo sapiens, UniProt P49759)
[6] = biological target: CLK2 (Homo sapiens, UniProt P49760)
[7] = biological target: DYRK1A (Homo sapiens, UniProt Q13627)
[8] = biological target: EGFR (ErbB1) G719S (Homo sapiens, UniProt P00533, G719S)
[9] = biological target: EPHA8 (Homo sapiens, UniProt P29322)
Chain of EPHA8 (P29322 whole entry): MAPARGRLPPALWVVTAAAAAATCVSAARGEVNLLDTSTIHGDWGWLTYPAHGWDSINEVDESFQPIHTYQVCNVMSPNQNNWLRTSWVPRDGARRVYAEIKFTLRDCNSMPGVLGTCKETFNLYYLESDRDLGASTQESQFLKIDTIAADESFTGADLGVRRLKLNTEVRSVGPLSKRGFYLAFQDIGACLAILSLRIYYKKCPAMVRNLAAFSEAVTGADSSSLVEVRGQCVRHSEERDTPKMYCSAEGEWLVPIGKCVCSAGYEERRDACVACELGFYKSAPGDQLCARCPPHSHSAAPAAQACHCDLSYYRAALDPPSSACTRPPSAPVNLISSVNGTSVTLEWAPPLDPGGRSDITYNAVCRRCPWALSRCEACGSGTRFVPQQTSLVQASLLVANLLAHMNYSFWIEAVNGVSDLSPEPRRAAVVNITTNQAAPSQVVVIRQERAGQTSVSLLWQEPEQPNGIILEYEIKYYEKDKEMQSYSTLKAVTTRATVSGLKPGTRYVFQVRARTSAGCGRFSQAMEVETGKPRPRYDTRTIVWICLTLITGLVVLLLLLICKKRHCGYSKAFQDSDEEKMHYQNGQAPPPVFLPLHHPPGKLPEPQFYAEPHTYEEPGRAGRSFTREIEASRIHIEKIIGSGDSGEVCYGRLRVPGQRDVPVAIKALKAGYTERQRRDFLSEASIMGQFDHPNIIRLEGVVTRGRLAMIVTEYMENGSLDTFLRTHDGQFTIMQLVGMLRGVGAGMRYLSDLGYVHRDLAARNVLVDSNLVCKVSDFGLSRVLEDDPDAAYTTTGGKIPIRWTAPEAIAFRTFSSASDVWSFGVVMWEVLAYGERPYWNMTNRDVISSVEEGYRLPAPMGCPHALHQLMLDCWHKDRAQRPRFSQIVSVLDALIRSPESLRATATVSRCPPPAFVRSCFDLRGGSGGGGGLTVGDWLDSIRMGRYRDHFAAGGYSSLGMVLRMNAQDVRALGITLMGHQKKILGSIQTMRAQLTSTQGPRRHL

[10] = biological target: EPHB2 (Homo sapiens, UniProt P29323)
[11] = biological target: EPHB3 (Homo sapiens, UniProt P54753)
[12] = biological target: FLT4 (VEGFR3) (Homo sapiens, UniProt P35916)
[13] = biological target: GRK5 (Homo sapiens, UniProt P34947)
[14] = biological target: HIPK1 (Myak) (Homo sapiens, UniProt Q86Z02)
[15] = biological target: INSRR (IRR) (Homo sapiens, UniProt P14616)
[16] = biological target: MAP2K6 (MKK6) (Homo sapiens, UniProt P52564)
[17] = biological target: MAP4K4 (HGK) (Homo sapiens, UniProt O95819)
[18] = biological target: MAPK11 (p38 beta) (Homo sapiens, UniProt Q15759)
[19] = biological target: MET (cMet) Y1235D (Homo sapiens, UniProt P08581, Y1235D)
[20] = biological target: MUSK (Homo sapiens, UniProt O15146)
Chain of MUSK (O15146 whole entry): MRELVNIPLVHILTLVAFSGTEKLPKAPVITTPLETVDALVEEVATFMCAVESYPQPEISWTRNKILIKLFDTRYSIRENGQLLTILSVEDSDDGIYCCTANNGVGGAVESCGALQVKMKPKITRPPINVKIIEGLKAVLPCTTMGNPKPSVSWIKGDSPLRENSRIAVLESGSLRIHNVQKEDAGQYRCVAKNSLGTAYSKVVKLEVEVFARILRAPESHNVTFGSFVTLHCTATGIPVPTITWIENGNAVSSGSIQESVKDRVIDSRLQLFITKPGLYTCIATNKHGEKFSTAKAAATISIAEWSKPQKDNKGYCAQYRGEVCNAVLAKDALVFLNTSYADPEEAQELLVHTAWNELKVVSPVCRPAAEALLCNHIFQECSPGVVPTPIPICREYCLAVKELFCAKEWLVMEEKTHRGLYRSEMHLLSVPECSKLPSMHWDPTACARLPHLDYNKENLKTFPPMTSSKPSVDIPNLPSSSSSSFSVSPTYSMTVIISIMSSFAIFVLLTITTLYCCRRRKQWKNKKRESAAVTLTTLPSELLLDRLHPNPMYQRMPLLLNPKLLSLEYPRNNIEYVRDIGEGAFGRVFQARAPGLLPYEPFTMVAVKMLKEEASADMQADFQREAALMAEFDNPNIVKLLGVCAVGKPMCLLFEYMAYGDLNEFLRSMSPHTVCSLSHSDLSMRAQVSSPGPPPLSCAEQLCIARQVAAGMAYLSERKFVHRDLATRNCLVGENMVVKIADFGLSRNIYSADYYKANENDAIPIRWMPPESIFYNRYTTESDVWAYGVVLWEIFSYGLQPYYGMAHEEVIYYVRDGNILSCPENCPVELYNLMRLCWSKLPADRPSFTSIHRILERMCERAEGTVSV

[21] = biological target: NEK1 (Homo sapiens, UniProt Q96PY6)
[22] = biological target: NTRK3 (TRKC) (Homo sapiens, UniProt Q16288)
Chain of NTRK3 (TRKC) (Q16288 whole entry): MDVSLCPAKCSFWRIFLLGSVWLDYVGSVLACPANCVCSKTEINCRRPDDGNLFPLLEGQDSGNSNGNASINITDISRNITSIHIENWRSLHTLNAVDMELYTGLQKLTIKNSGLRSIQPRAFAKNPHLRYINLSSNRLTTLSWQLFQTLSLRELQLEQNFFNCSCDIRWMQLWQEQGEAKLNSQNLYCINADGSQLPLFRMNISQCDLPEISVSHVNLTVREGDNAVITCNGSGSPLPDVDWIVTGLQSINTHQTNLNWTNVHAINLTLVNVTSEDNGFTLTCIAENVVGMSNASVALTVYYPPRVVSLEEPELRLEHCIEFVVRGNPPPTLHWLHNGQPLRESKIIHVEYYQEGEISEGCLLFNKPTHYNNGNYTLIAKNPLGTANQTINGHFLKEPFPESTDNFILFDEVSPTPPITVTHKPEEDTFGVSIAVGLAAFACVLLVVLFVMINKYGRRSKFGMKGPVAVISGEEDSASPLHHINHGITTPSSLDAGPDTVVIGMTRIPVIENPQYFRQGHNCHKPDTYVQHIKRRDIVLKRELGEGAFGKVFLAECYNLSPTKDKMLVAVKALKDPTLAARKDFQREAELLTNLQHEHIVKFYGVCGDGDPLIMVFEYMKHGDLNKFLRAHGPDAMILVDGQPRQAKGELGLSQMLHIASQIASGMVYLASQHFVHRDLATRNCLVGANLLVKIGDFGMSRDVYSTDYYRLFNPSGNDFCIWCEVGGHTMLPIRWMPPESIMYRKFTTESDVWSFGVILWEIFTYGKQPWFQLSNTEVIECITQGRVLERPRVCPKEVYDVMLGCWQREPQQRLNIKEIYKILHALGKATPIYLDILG

[23] = biological target: PRKCE (PKC epsilon) (Homo sapiens, UniProt Q02156)
Chain of PRKCE (PKC epsilon) (Q02156 whole entry): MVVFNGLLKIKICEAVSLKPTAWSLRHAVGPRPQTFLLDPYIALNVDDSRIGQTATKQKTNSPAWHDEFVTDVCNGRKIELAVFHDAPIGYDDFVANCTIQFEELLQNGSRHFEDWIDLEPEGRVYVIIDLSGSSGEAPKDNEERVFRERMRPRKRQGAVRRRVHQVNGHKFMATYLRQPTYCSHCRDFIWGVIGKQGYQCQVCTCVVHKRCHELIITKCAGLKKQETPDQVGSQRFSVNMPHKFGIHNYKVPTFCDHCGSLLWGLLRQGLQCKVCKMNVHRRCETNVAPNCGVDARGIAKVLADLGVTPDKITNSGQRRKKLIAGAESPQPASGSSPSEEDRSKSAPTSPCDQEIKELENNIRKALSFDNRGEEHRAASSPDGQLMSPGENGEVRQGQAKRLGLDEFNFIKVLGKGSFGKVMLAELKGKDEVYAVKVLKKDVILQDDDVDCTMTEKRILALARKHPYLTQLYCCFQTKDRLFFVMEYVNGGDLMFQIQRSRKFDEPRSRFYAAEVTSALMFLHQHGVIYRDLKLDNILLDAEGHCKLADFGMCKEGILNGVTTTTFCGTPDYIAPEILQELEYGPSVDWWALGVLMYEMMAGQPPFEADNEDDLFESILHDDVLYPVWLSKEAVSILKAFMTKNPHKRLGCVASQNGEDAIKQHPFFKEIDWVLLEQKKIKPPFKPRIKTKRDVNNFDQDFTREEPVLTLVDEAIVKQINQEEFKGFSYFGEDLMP

[24] = biological target: PRKCN (PKD3) (Homo sapiens, UniProt O94806)
[25] = biological target: RAF1 (cRAF) Y340D Y341D (Homo sapiens, UniProt P04049, Y340D/Y341D)
[26] = biological target: SRPK2 (Homo sapiens, UniProt P78362)
[27] = biological target: STK22D (TSSK1) (Homo sapiens, UniProt Q9BXA7)
[28] = biological target: STK24 (MST3) (Homo sapiens, UniProt Q9Y6E0)
Chain of STK24 (MST3) (Q9Y6E0 whole entry): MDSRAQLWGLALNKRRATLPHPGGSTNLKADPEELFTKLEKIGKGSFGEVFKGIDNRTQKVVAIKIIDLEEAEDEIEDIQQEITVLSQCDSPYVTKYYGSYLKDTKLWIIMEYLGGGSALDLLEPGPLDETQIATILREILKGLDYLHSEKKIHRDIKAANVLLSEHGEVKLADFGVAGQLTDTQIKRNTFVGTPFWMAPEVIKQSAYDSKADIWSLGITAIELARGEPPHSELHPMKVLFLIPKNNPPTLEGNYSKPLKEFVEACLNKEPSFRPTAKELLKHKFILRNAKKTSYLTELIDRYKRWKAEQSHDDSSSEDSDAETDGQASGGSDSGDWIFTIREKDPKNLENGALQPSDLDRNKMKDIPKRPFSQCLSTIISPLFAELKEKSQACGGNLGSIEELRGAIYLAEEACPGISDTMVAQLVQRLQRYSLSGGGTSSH

[29] = biological target: SYK (Homo sapiens, UniProt P43405)

Chain of ABL1 (P00519 whole entry): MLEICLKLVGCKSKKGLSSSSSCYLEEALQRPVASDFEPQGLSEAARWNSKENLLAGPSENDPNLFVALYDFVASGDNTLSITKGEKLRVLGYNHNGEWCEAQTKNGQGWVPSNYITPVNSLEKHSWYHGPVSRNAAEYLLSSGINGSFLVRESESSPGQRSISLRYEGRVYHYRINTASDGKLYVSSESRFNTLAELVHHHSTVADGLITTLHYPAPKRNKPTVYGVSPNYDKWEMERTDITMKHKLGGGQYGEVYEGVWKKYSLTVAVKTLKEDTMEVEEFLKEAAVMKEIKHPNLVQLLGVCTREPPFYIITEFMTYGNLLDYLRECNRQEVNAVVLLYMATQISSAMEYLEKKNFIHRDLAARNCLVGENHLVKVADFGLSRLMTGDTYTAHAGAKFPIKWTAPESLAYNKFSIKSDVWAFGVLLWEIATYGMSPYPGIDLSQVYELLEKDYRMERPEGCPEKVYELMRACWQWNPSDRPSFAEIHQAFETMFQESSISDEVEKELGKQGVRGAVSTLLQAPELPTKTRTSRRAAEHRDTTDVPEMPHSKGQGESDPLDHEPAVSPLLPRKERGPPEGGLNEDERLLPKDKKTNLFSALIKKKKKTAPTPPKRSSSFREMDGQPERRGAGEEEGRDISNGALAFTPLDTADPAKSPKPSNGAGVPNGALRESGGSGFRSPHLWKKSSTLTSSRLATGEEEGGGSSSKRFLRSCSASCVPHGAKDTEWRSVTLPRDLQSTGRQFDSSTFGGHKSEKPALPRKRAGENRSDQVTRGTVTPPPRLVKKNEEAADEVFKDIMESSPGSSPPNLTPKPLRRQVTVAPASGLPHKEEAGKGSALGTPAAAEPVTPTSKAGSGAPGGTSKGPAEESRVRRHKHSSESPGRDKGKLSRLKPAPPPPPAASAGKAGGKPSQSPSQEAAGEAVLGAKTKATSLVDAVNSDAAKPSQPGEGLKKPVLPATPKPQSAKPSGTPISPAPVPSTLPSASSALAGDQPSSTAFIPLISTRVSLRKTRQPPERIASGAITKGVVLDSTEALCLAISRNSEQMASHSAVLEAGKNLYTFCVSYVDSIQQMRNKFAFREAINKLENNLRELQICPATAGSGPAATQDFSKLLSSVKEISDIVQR

COc1ccc2nc3cc(Cl)ccc3c(Nc3cc(CN4CCCC4)c(O)c(CN4CCCC4)c3)c2n1 [Pyronaridine, 4-[(7-Chloro-2-methoxybenzo[b][1,5]naphthyridin-10-yl)amino]-2,6-bis(1-pyrrolidinylmethyl)phenol phosphate (1:4)]
inhibition at 1 µM [1]: 2%
inhibition at 1 µM [2]: 5%
inhibition at 1 µM [3]: 0%
inhibition at 1 µM [4]: 3%
inhibition at 1 µM [5]: -1%
inhibition at 1 µM [6]: 3%
inhibition at 1 µM [7]: 3%
inhibition at 1 µM [8]: -5%
inhibition at 1 µM [9]: 1%
inhibition at 1 µM [10]: 4%
inhibition at 1 µM [11]: -1%
inhibition at 1 µM [12]: 3%
inhibition at 1 µM [13]: 10%
inhibition at 1 µM [14]: 1%
inhibition at 1 µM [15]: -1%
inhibition at 1 µM [16]: 3%
inhibition at 1 µM [17]: 1%
inhibition at 1 µM [18]: -8%
inhibition at 1 µM [19]: 4%
inhibition at 1 µM [20]: -10%
inhibition at 1 µM [21]: -1%
inhibition at 1 µM [22]: 2%
inhibition at 1 µM [23]: 6%
inhibition at 1 µM [24]: 8%
inhibition at 1 µM [25]: -9%
inhibition at 1 µM [26]: -4%
inhibition at 1 µM [27]: 6%
inhibition at 1 µM [28]: 4%
inhibition at 1 µM [29]: 1%
